# pEC50: −log10 of the molar value.
# Key:
# [1] = target: T1, porcine beta-2 adrenoceptor (Sus scrofa, UniProt Q28997); test: cAMP assay in CHO cells transfected with the porcine beta-2 adrenoceptor (DiscoveRx Hit Hunter cAMP II); format: cell-based; conditions: CHO cells transfected with porcine beta-2 adrenoceptor, 30 minutes incubation with compound
# T1 construct: expressed in transfected cells; host or cells: CHO cells
# How it was run: (§1)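 CHO cells expressing porcine or bovine β2 receptor pre-incubated 30 min with 0.5 mM IBMX, then exposed to compound (5×10^−12 to 10^−5 M) for 30 min at 37 °C. cAMP read by enzyme-fragment complementation kit; duplicate samples, EC50 from curve fitting.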
# [2] = target: T2, bovine beta-2 adrenoceptor (Bos taurus, UniProt Q28044); test: cAMP assay in CHO cells transfected with the bovine beta-2 adrenoceptor (DiscoveRx Hit Hunter cAMP II); format: cell-based; conditions: CHO cells transfected with bovine beta-2 adrenoceptor, 30 minutes incubation with compound
# T2 construct: expressed in transfected cells; host or cells: CHO cells
# How it was run: as §1
# T1 sequence (Q28997 whole entry): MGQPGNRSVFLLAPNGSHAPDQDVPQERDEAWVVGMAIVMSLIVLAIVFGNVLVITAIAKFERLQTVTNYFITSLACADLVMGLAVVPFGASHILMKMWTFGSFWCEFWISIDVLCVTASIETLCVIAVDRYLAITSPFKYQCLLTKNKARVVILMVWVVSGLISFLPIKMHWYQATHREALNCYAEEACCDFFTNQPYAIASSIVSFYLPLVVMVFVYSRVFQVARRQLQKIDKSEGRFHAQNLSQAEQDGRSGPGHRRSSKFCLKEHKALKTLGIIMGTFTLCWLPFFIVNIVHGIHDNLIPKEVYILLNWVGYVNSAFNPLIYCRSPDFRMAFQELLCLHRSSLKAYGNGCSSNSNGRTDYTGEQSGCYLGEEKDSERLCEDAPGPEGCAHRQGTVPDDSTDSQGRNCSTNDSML
# T2 sequence (Q28044 whole entry): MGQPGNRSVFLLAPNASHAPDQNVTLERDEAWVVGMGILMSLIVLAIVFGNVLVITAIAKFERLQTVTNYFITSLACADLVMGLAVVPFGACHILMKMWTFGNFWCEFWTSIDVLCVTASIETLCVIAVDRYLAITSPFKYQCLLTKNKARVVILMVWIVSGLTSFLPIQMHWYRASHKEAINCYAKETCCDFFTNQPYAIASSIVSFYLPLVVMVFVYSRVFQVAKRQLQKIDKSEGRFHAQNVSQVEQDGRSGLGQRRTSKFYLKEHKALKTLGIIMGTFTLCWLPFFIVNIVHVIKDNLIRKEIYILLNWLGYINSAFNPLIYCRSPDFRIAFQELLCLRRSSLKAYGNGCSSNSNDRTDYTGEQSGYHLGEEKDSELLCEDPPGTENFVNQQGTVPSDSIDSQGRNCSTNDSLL
Compound,pEC50 [1],pEC50 [2]
"CC(CCc1cccc2cc[nH]c12)N[C@@H]1CCn2c(=O)[nH]c3cccc(c32)[C@H]1O (single isomer, unassigned) [Example 38b, 7-Hydroxy-6-{[3-(1H-indol-7-yl)-1-methylpropyl]amino}-4,5,6,7-tetrahydroimidazo[4,5,1-jk][1]benzazepin-2(1H)-one]",9.05,9.10
"CC(CCc1cccc2cc[nH]c12)N[C@@H]1CCn2c(=O)[nH]c3cccc(c32)[C@H]1O (single isomer, unassigned) [Example 38c, 7-Hydroxy-6-{[3-(1H-indol-7-yl)-1-methylpropyl]amino}-4,5,6,7-tetrahydroimidazo[4,5,1-jk][1]benzazepin-2(1H)-one]",6.76,6.86
"CC(CCc1cccnc1N)N[C@@H]1CCn2c(=O)[nH]c3cccc(c32)[C@H]1O (single isomer, unassigned) [Example 44]",8.74,8.89
"CC(CCc1cncc(N)c1)N[C@@H]1CCn2c(=O)[nH]c3cccc(c32)[C@H]1O (single isomer, unassigned) [Example 45]",8.96,8.85
"CC(CCc1ccc(N)nc1)N[C@@H]1CCn2c(=O)[nH]c3cccc(c32)[C@H]1O (single isomer, unassigned) [Example 46]",8.55,8.52
"CC(CCc1cnsc1)N[C@@H]1CCn2c(=O)[nH]c3cccc(c32)[C@H]1O (single isomer, unassigned) [Example 47]",9.05,9.22
"Cc1nn(C)c(C)c1CCC(C)N[C@@H]1CCn2c(=O)[nH]c3cccc(c32)[C@H]1O (single isomer, unassigned) [Example 48]",8.51,8.47
"CC(CCc1cncs1)N[C@@H]1CCn2c(=O)[nH]c3cccc(c32)[C@H]1O (single isomer, unassigned) [Example 49]",8.19,8.33
"CC(CCn1cnc2ccccc21)N[C@@H]1CCn2c(=O)[nH]c3cccc(c32)[C@H]1O (single isomer, unassigned) [Example 51]",9.05,9.22
"CC(CCc1cc(Br)no1)N[C@@H]1CCn2c(=O)[nH]c3cccc(c32)[C@H]1O (single isomer, unassigned) [Example 52]",8.89,8.92
"Cc1[nH]c2ccc(F)cc2c1CCC(C)N[C@@H]1CCn2c(=O)[nH]c3cccc(c32)[C@H]1O (single isomer, unassigned) [Example 54]",8.51,8.57
"CC(CCc1c[nH]c2cccnc12)N[C@@H]1CCn2c(=O)[nH]c3cccc(c32)[C@H]1O (single isomer, unassigned) [Example 55]",8.00,8.36
"CC(CCc1cnn(C)c1)N[C@@H]1CCn2c(=O)[nH]c3cccc(c32)[C@H]1O (single isomer, unassigned) [Example 56]",8.57,8.28
"CC(CCc1c[nH]c2cnccc12)N[C@@H]1CCn2c(=O)[nH]c3cccc(c32)[C@H]1O (single isomer, unassigned) [Example 57]",7.89,8.24
"CC(CCc1n[nH]c2ccccc12)N[C@@H]1CCn2c(=O)[nH]c3cccc(c32)[C@H]1O (single isomer, unassigned) [Example 58]",7.48,8.08
"Cc1nn(C)cc1CCC(C)N[C@@H]1CCn2c(=O)[nH]c3cccc(c32)[C@H]1O (single isomer, unassigned) [Example 59]",7.77,7.70
"CC(CCc1c[nH]c2cc(C#N)ccc12)N[C@@H]1CCn2c(=O)[nH]c3cccc(c32)[C@H]1O (single isomer, unassigned) [Example 60]",7.89,7.64
"CC(CCn1cncn1)N[C@@H]1CCn2c(=O)[nH]c3cccc(c32)[C@H]1O (single isomer, unassigned) [Example 61]",7.74,7.55
"CC(CCc1c[nH]c2ccncc12)N[C@@H]1CCn2c(=O)[nH]c3cccc(c32)[C@H]1O (single isomer, unassigned) [Example 62]",7.55,7.46

Compound,pEC50 [1],pEC50 [2]
"Cc1cc(CCC(C)N[C@@H]2CCn3c(=O)[nH]c4cccc(c43)[C@H]2O)ccn1 (single isomer, unassigned) [Example 63]",7.60,7.09
"Cc1cc(C)n(CCC(C)N[C@@H]2CCn3c(=O)[nH]c4cccc(c43)[C@H]2O)n1 (single isomer, unassigned) [Example 64]",6.73,6.77
"C[C@H](CCc1c[nH]c2ccccc12)N[C@@H]1CCn2c(=O)[nH]c3cccc(c32)[C@H]1O [Example 4e, 7-Hydroxy-6-{[3-(1H-indol-3-yl)-1-methylpropyl]amino}-4,5,6,7-tetrahydroimidazo[4,5,1-jk][1]benzazepin-2(1H)-one]",8.43,8.96
"C[C@H](CCc1c[nH]c2ccccc12)N[C@@H]1CCn2c(=O)[nH]c3cccc(c32)[C@H]1O [Example 4f, 7-Hydroxy-6-{[3-(1H-indol-3-yl)-1-methylpropyl]amino}-4,5,6,7-tetrahydroimidazo[4,5,1-jk][1]benzazepin-2(1H)-one]",8.60,8.77
"CNc1nc(CC(C)NC2CCn3c(=O)[nH]c4cccc(c43)C2O)ns1 (centres unmarked) [Example 10, 7-Hydroxy-6-({1-methyl-2-[5-(methylamino)-1,2,4-thiadiazol-3-yl]ethyl}amino)-4,5,6,7-tetrahydroimidazo[4,5,1-jk][1]benzazepin-2(1H)-one]",6.40,6.30
"CC(Cc1ccco1)NC1CCn2c(=O)[nH]c3cccc(c32)C1O (centres unmarked) [Example 11, 6-{[2-(2-Furyl)-1-methylethyl]amino}-7-hydroxy-4,5,6,7-tetrahydroimidazo[4,5,1-jk][1]benzazepin-2(1H)-one]",7.19,6.97
"CC(CCc1nc2ccccc2[nH]1)NC1CCn2c(=O)[nH]c3cccc(c32)C1O (centres unmarked) [Example 12, 6-{[3-(1H-Benzimidazol-2-yl)-1-methylpropyl]amino}-7-hydroxy-4,5,6,7-tetrahydroimidazo[4,5,1-jk][1]benzazepin-2(1H)-one]",7.28,7.47
"CC(CCc1ccccn1)NC1CCn2c(=O)[nH]c3cccc(c32)C1O (centres unmarked) [Example 13, 7-Hydroxy-6-[(1-methyl-3-pyridin-2-ylpropyl)amino]-4,5,6,7-tetrahydroimidazo[4,5,1-jk][1]benzazepin-2(1H)-one]",6.74,6.45
"CC(CCc1cn(C)c2ccccc12)NC1CCn2c(=O)[nH]c3cccc(c32)C1O (centres unmarked) [Example 14a, 7-Hydroxy-6-{[1-methyl-3-(1-methyl-1H-indol-3-yl)propyl]amino}-4,5,6,7-tetrahydroimidazo[4,5,1-jk][1]benzazepin-2(1H)-one]",7.59,7.74
"CC(CCn1cccn1)NC1CCn2c(=O)[nH]c3cccc(c32)C1O (centres unmarked) [Example 15, 7-Hydroxy-6-{[1-methyl-3-(1H-pyrazol-1-yl)propyl]amino}-4,5,6,7-tetrahydroimidazo[4,5,1-jk][1]benzazepin-2(1H)-one]",7.01,6.79
"O=c1[nH]c2cccc3c2n1CCC(NCCCc1c[nH]c2ccccc12)C3O (centres unmarked) [Example 19, 7-Hydroxy-6-{[3-(1H-indol-3-yl)propyl]amino}-4,5,6,7-tetrahydroimidazo[4,5,1-jk][1]benzazeopin-2(1H)-one]",7.19,7.30
"CC(CCc1nccs1)NC1CCn2c(=O)[nH]c3cccc(c32)C1O (centres unmarked) [Example 24a, 7-Hydroxy-6-{[1-methyl-3-(1,3-thiazol-2-yl)propyl]amino}-4,5,6,7-tetrahydroimidazo[4,5,1-jk][1]benzazepin-2(1H)-one]",6.33,6.39
"CC(CCc1c[nH]c2ccncc12)NC1CCn2c(=O)[nH]c3cccc(c32)C1O (centres unmarked) [Example 31a, 7-Hydroxy-6-{[1-methyl-3-(1H-pyrrolo[3,2-c]pyridin-3-yl)propyl]amino}-4,5,6,7-tetrahydroimidazo[4,5,1-jk][1]benzazepin-2(1H)-one]",6.84,6.71
"CC(CCc1c[nH]c2cnccc12)NC1CCn2c(=O)[nH]c3cccc(c32)C1O (centres unmarked) [Example 32a, 7-Hydroxy-6-{[1-methyl-3-(1H-pyrrolo[2,3-c]pyridin-3-yl)propyl]amino}-4,5,6,7-tetrahydroimidazo[4,5,1-jk][1]benzazepin-2(1H)-one]",7.04,7.28
"CC(CCc1ccc[nH]c1=O)NC1CCn2c(=O)[nH]c3cccc(c32)C1O (centres unmarked) [Example 36, 7-Hydroxy-6-{[1-methyl-3-(2-oxo-1,2-dihydropyridin-3-yl)propyl]amino}-4,5,6,7-tetrahydroimidazo[4,5,1-jk][1]benzazepin-2(1H)-one]",7.25,7.23
"Cc1c(CC[C@@H](C)N[C@@H]2CCn3c(=O)[nH]c4cccc(c43)[C@H]2O)cnn1C [Example 53, (6R,7R)-6-{[(1R)-3-(1,5-Dimethyl-1H-pyrazol-4-yl)-1-methylpropyl]amino}-7-hydroxy-4,5,6,7-tetrahydroimidazo[4,5,1-jk][1]benzazepin-2(1H)-one]",8.55,8.70
"C[C@H](CCc1cnco1)N[C@@H]1CCn2c(=O)[nH]c3cccc(c32)[C@H]1O [Example 66, (6R,7R)-7-hydroxy-6-{[(1R)-1-methyl-3-(1,3-oxazol-5-yl)propyl]amino}-4,5,6,7-tetrahydroimidazo[4,5,1-jk][1]benzazepin-2(1H)-one]",8.21,7.73
"COc1ncc(CC[C@@H](C)N[C@@H]2CCn3c(=O)[nH]c4cccc(c43)[C@H]2O)s1 [Example 67, (6R,7R)-7-hydroxy-6-{[(1R)-3-(2-methoxy-1,3-thiazol-5-yl)-1-methylpropyl]amino}-4,5,6,7-tetrahydroimidazo[4,5,1-jk][1]benzazepin-2(1H)-one]",8.57,8.57
